Data on 4 compounds can be found in patent publication US5856359A, “Thyroxine/cyclodextrin complexes and pharmaceutical compositions containing the same” (Hexal AG, priority 1995, dated 1999).

Common to all, as to assay type: physicochemical
The nature of data set [1]: Aqueous solubility of L-thyroxine sodium salt in the presence of cyclodextrins. The source says:
Interaction between L-thyroxine sodium and cyclodextrins in presence of water.
One evidence of the interaction between L-thyroxine and cyclodextrins is that the cyclodextrins increase the aqueous solubility of the thyroxine as shown in Table 1.
Solubility of L-thyroxine sodium salt in the presence of CDs (mg/ml)

The nature of data set [2]: Aqueous solubility of L-thyroxine free acid in the presence of γ-cyclodextrin. The procedure:
This poor solubility can be affected positively by employing γ-cyclodextrin. The effect of γ-cyclodextrin as to the aqueous solubility of thyroxine acid is shown by the results in the table below:
Aqueous solubility of thyroxine free acid in the
presence of γ-cyclodextrin at 25° C. studied on two

A short description of data set [3]: Physical stability of aqueous gels and solutions on storage. The procedure:
150 mg of a water swellable polymer (i.e. Klucel; Hercules Corp. USA) was added.
The aqueous gel containing γ-cyclodextrin solubilized thyroxine was prepared by mixing at room temperature 150 mg of Pionier NP37 (polyacrylicacid) with 10 ml of 10% aqueous γ-cyclodextrin solution containing 300 mg solubilized L-thyroxine-Na.
10 ml of the aqueous Pionier NP37-thyroxine/γ-cyclodextrin formulation was stored in sealed polyethylene bags as well as in capped glass vials under normal laboratory conditions (22° C. exposed to day light) for two weeks and the turbidity of the samples was investigated.

Structures can show the parent of a compound that is named as a salt.

With thyroxine, in data set [1], the “effect on the solubility of thyroxine” value was “practically no effect”; the “improvement of aqueous solubility of thyroxine” value is “did not significantly improve the aqueous solubility of thyroxine”; the “solubilizing potency of methylated-β-cyclodextrins for thyroxine versus γ-cyclodextrin” value is “less potent solubilizers of thyroxine, than the chemically non-modified γ-cyclodextrin”.
Turning to `N[C@@H](Cc1cc(I)c(Oc2cc(I)c(O)c(I)c2)c(I)c1)C(=O)O` [L-thyroxine free acid, 0-(4-hydroxy-3,5-diiodophenyl)-3,5-diiodotyrosine], the “enhancement of aqueous solubility of the acid form of thyroxine” value in data set [2] (cyclodextrin 20% by weight) is “enhanced by about ten-fold”. Also, the solubility in data set [2] (water with γ-cyclodextrin, γ-cyclodextrin 5 g/100 ml, 25° C., 1-st run, read-out: solubility of thyroxine free acid) is 400 µg/mL; in data set [2] (water with γ-cyclodextrin, γ-cyclodextrin 5 g/100 ml, 25° C., 2-nd run, read-out: solubility of thyroxine free acid), 379 µg/mL; in data set [2] (water with γ-cyclodextrin, γ-cyclodextrin 10 g/100 ml, 25° C., 1-st run, read-out: solubility of thyroxine free acid), 646 µg/mL; in data set [2] (water with γ-cyclodextrin, γ-cyclodextrin 10 g/100 ml, 25° C., 2-nd run, read-out: solubility of thyroxine free acid) it was 652 µg/mL; in data set [2] (water with γ-cyclodextrin, γ-cyclodextrin 12 g/100 ml, 25° C., 1-st run, read-out: solubility of thyroxine free acid), 765 µg/mL; in data set [2] (water with γ-cyclodextrin, γ-cyclodextrin 12 g/100 ml, 25° C., 2-nd run, read-out: solubility of thyroxine free acid) it was 800 µg/mL. The solubility in data set [2] (water with γ-cyclodextrin, γ-cyclodextrin 15 g/100 ml, 25° C., 1-st run, read-out: solubility of thyroxine free acid) is 1020 µg/mL; in data set [2] (water with γ-cyclodextrin, γ-cyclodextrin 15 g/100 ml, 25° C., 2-nd run, read-out: solubility of thyroxine free acid), 1000 µg/mL; in data set [2] (water with γ-cyclodextrin, γ-cyclodextrin 20 g/100 ml, 25° C., 1-st run, read-out: solubility of thyroxine free acid), 1390 µg/mL; in data set [2] (water with γ-cyclodextrin, γ-cyclodextrin 20 g/100 ml, 25° C., 2-nd run, read-out: solubility of thyroxine free acid), 1440 µg/mL; in data set [2] (water, without cyclodextrin, read-out: aqueous solubility of the free acid form of L-thyroxine) it was 110 to 150 µg/mL; in data set [2] (water, γ-cyclodextrin 0 g/100 ml, 25° C., 1-st run, read-out: solubility of thyroxine free acid), 110 µg/mL. For the same compound, the solubility in data set [2] (water, γ-cyclodextrin 0 g/100 ml, 25° C., 2-nd run, read-out: solubility of thyroxine free acid) is 150 µg/mL.
Consider `OC[C@H]1O[C@@H]2O[C@H]3[C@H](O)[C@@H](O)[C@@H](O[C@H]4[C@H](O)[C@@H](O)[C@@H](O[C@H]5[C@H](O)[C@@H](O)[C@@H](O[C@H]6[C@H](O)[C@@H](O)[C@@H](O[C@H]7[C@H](O)[C@@H](O)[C@@H](O[C@H]8[C@H](O)[C@@H](O)[C@@H](O[C@H]9[C@H](O)[C@@H](O)[C@@H](O[C@H]1[C@H](O)[C@H]2O)O[C@@H]9CO)O[C@@H]8CO)O[C@@H]7CO)O[C@@H]6CO)O[C@@H]5CO)O[C@@H]4CO)O[C@@H]3CO` [γ-cyclodextrin], for which the precipitate formation result in data set [3] (aqueous γ-cyclodextrin solution without L-thyroxine-Na, after one week of storage) is “small amount of white precipitate formation”. Besides, in data set [3] (clear aqueous γ-cyclodextrin solutions without L-thyroxine-Na, or L-thyroxine-Na/γ-cyclodextrin hydrogels), the “haze / precipitate formation on storage” value is reported as “hazy within three days”.
On to `N[C@@H](Cc1cc(I)c(Oc2cc(I)c(O)c(I)c2)c(I)c1)C(=O)O` [L-thyroxine sodium salt, Levothyroxine sodium], for which the solubility was 1440 µg/mL in data set [1] (water with 2-hydroxypropylated-β-cyclodextrin, 2-hydroxypropylated-β-cyclodextrin 1.0%); 2900 µg/mL in data set [1] (water with 2-hydroxypropylated-β-cyclodextrin, 2-hydroxypropylated-β-cyclodextrin 5.0%); 2740 µg/mL in data set [1] (water with 2-hydroxypropylated-β-cyclodextrin, 2-hydroxypropylated-β-cyclodextrin 7.0%); 2770 µg/mL in data set [1] (water with 2-hydroxypropylated-β-cyclodextrin, 2-hydroxypropylated-β-cyclodextrin 10.0%); 3050 µg/mL in data set [1] (water with 2-hydroxypropylated-β-cyclodextrin, 2-hydroxypropylated-β-cyclodextrin 12.0%); 3140 µg/mL in data set [1] (water with 2-hydroxypropylated-β-cyclodextrin, 2-hydroxypropylated-β-cyclodextrin 15.0%). The solubility is 3100 µg/mL in data set [1] (water with 2-hydroxypropylated-β-cyclodextrin, 2-hydroxypropylated-β-cyclodextrin 3.0%); 3160 µg/mL in data set [1] (water with heptakis-2,6-di-o-methyl-β-cyclodextrin, heptakis-2,6-di-O-methyl-β-cyclodextrin 1.0%); 5500 µg/mL in data set [1] (water with heptakis-2,6-di-o-methyl-β-cyclodextrin, heptakis-2,6-di-O-methyl-β-cyclodextrin 3.0%); 3700 µg/mL in data set [1] (water with randomly-methylated-β-cyclodextrin, randomly-methylated-β-cyclodextrin 1.0%); 8360 µg/mL in data set [1] (water with randomly-methylated-β-cyclodextrin, randomly-methylated-β-cyclodextrin 5.0%); 9330 µg/mL in data set [1] (water with randomly-methylated-β-cyclodextrin, randomly-methylated-β-cyclodextrin 7.0%). Further, the solubility in data set [1] (water with randomly-methylated-β-cyclodextrin, randomly-methylated-β-cyclodextrin 10.0%) is 10300 µg/mL; in data set [1] (water with randomly-methylated-β-cyclodextrin, randomly-methylated-β-cyclodextrin 12.0%) it was 13300 µg/mL; in data set [1] (water with randomly-methylated-β-cyclodextrin, randomly-methylated-β-cyclodextrin 15.0%), 16800 µg/mL; in data set [1] (water with randomly-methylated-β-cyclodextrin, randomly-methylated-β-cyclodextrin 3.0%), 6150 µg/mL; in data set [1] (water with γ-cyclodextrin, γ-cyclodextrin 1.0%), 5480 µg/mL; in data set [1] (water with γ-cyclodextrin, γ-cyclodextrin 5.0%), 16900 µg/mL. The solubility in data set [1] (water with γ-cyclodextrin, γ-cyclodextrin 7.0%) is 26600 µg/mL; in data set [1] (water with γ-cyclodextrin, γ-cyclodextrin 12.0%), 35100 µg/mL; in data set [1] (water with γ-cyclodextrin, γ-cyclodextrin 15.0%), 44200 µg/mL; in data set [1] (water with γ-cyclodextrin, γ-cyclodextrin 3.0%), 12100 µg/mL; in data set [1] (water, 1.0% maltosyl-β-cyclodextrin, Maltosyl-β-cyclodextrin 1.0%) it was 2290 µg/mL; in data set [1] (water, 2-hydroxypropylated-β-cyclodextrin column, 0% (no CDs)), 2000 µg/mL. For the same compound, the solubility in data set [1] (water, 3.0% maltosyl-β-cyclodextrin, Maltosyl-β-cyclodextrin 3.0%) came to 2480 µg/mL; in data set [1] (water, 5.0% dimethyl-β-cyclodextrin, heptakis-2,6-di-O-methyl-β-cyclodextrin 5.0%), 7000 µg/mL; in data set [1] (water, 5.0% maltosyl-β-cyclodextrin, Maltosyl-β-cyclodextrin 5.0%) it was 2320 µg/mL; in data set [1] (water, 7.0% dimethyl-β-cyclodextrin, heptakis-2,6-di-O-methyl-β-cyclodextrin 7.0%) it was 7620 µg/mL; in data set [1] (water, 7.0% maltosyl-β-cyclodextrin, Maltosyl-β-cyclodextrin 7.0%) it was 2940 µg/mL; in data set [1] (water, 10.0% maltosyl-β-cyclodextrin, Maltosyl-β-cyclodextrin 10.0%), 2730 µg/mL. The solubility in data set [1] (water, 12.0% dimethyl-β-cyclodextrin, heptakis-2,6-di-O-methyl-β-cyclodextrin 12.0%) is 12100 µg/mL; in data set [1] (water, 12.0% maltosyl-β-cyclodextrin, Maltosyl-β-cyclodextrin 12.0%), 2800 µg/mL; in data set [1] (water, 15.0% dimethyl-β-cyclodextrin, heptakis-2,6-di-O-methyl-β-cyclodextrin 15.0%), 14200 µg/mL; in data set [1] (water, 15.0% maltosyl-β-cyclodextrin, Maltosyl-β-cyclodextrin 15.0%) it was 2680 µg/mL; in data set [1] (water, Maltosyl-β-cyclodextrin column, 0% (no CDs)) it was 2000 µg/mL; in data set [1] (water, heptakis-2,6-di-O-methyl-β-cyclodextrin column, 0% (no CDs)) it was 2000 µg/mL. Besides, the solubility in data set [1] (water, randomly-methylated-β-cyclodextrin column, 0% (no CDs)) came to 2000 µg/mL; in data set [1] (water, γ-cyclodextrin column, 0% (no CDs)), 2000 µg/mL. Besides, the “improvement of aqueous solubility of L-thyroxine sodium” value in data set [1] (γ-cyclodextrin, among unsubstituted cyclodextrins) is on record as “improve the aqueous solubility of L-thyroxine sodium most remarkably”.
